Laboratory results published in PubChem BioAssay AID248 (DTP/NCI, 2004).
“And” between values parts separate entries of the source, which are not always exact repeats. Equal values may be shown once. Inconclusive results and toxic doses are left out.

System: L1210 leukemia ip in BDF1 mice, survival T/C
Assay: NCI In Vivo Anticancer Drug Screen. Data for tumor model L1210 Leukemia (intraperitoneal) in B6D2F1 (BDF1) mice
Conditions: endpoint: mean survival time, higher = longer survival
Procedure, shortened: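 Survival endpoint. Drug-treated group vs vehicle group, expressed as T divided by C. Tumor passaged by transplantation.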

[1] = dose: 100.0 mg/kg/injection, schedule: Q01DX009 (ip), vehicle: Klucel (hydroxypropylcellulose) (HPC)
[2] = dose: 200.0 mg/kg/injection, schedule: Q01DX009 (ip), vehicle: Klucel (hydroxypropylcellulose) (HPC)
[3] = dose: 400.0 mg/kg/injection, schedule: Q01DX009 (ip), vehicle: Klucel (hydroxypropylcellulose) (HPC)
[4] = dose: 100.0 mg/kg/injection, schedule: Q04DX003 (ip), vehicle: Klucel (hydroxypropylcellulose) (HPC)
[5] = dose: 200.0 mg/kg/injection, schedule: Q04DX003 (ip), vehicle: Klucel (hydroxypropylcellulose) (HPC)
[6] = dose: 75.0 mg/kg/injection, schedule: Q01DX001 (ip), vehicle: saline
[7] = dose: 150.0 mg/kg/injection, schedule: Q01DX001 (ip), vehicle: saline
[8] = dose: 400.0 mg/kg/injection, schedule: Q04DX003 (ip), vehicle: Klucel (hydroxypropylcellulose) (HPC)
[9] = dose: 100.0 mg/kg/injection, schedule: Q01DX001 (ip), vehicle: saline
[10] = dose: 200.0 mg/kg/injection, schedule: Q01DX001 (ip), vehicle: saline
[11] = dose: 400.0 mg/kg/injection, schedule: Q01DX001 (ip), vehicle: saline
[12] = dose: 100.0 mg/kg/injection, schedule: Q04DX002 (ip), vehicle: saline with Tween-80
[13] = dose: 200.0 mg/kg/injection, schedule: Q04DX002 (ip), vehicle: saline with Tween-80
[14] = dose: 400.0 mg/kg/injection, schedule: Q04DX002 (ip), vehicle: saline with Tween-80
[15] = dose: 12.5 mg/kg/injection, schedule: Q04DX003 (ip), vehicle: saline
[16] = dose: 25.0 mg/kg/injection, schedule: Q04DX003 (ip), vehicle: saline
[17] = dose: 50.0 mg/kg/injection, schedule: Q01DX009 (ip), vehicle: saline
[18] = dose: 50.0 mg/kg/injection, schedule: Q04DX003 (ip), vehicle: saline
[19] = dose: 100.0 mg/kg/injection, schedule: Q04DX003 (ip), vehicle: saline with Tween-80
[20] = dose: 200.0 mg/kg/injection, schedule: Q04DX003 (ip), vehicle: saline with Tween-80
[21] = dose: 400.0 mg/kg/injection, schedule: Q04DX003 (ip), vehicle: saline with Tween-80
[22] = dose: 100.0 mg/kg/injection, schedule: Q04DX003 (ip), vehicle: saline
[23] = dose: 6.25 mg/kg/injection, schedule: Q01DX009 (ip), vehicle: Klucel (hydroxypropylcellulose) (HPC)
[24] = dose: 12.5 mg/kg/injection, schedule: Q01DX009 (ip), vehicle: Klucel (hydroxypropylcellulose) (HPC)
[25] = dose: 25.0 mg/kg/injection, schedule: Q01DX009 (ip), vehicle: Klucel (hydroxypropylcellulose) (HPC)
[26] = dose: 50.0 mg/kg/injection, schedule: Q01DX009 (ip), vehicle: Klucel (hydroxypropylcellulose) (HPC)

O=C(O)c1cc(Br)c(-c2c(Br)cc(C(=O)O)cc2[N+](=O)[O-])c([N+](=O)[O-])c1
T/C (dose: 50.0 mg/kg/injection, schedule: Q01DX001 (ip), vehicle: Klucel (hydroxypropylcellulose) (HPC)): 95 % of control | T/C (dose: 100.0 mg/kg/injection, schedule: Q01DX001 (ip), vehicle: Klucel (hydroxypropylcellulose) (HPC)): 106 % of control | T/C (dose: 200.0 mg/kg/injection, schedule: Q01DX001 (ip), vehicle: Klucel (hydroxypropylcellulose) (HPC)): 95 % of control

CCCCCCCCCCCCCCCCCC(=O)N/N=C\c1c(O)ccc2ccccc12
T/C [1]: 93 % of control and 90 % of control | T/C [2]: 88 % of control | T/C [3]: 89 % of control

CN(CCC#N)c1ccc(/C=C(\C#N)c2ccc(Br)cc2)cc1
T/C [1]: 94 % of control | T/C [2]: 94 % of control | T/C [3]: 96 % of control

O=C(NCCCl)NC1CCc2ccccc21 (stereo not given)
T/C (dose: 20.0 mg/kg/injection, schedule: Q04DX003 (ip), vehicle: Klucel (hydroxypropylcellulose) (HPC)): 92 % of control | T/C (dose: 40.0 mg/kg/injection, schedule: Q04DX003 (ip), vehicle: Klucel (hydroxypropylcellulose) (HPC)): 92 % of control | T/C (dose: 80.0 mg/kg/injection, schedule: Q04DX003 (ip), vehicle: Klucel (hydroxypropylcellulose) (HPC)): 91 % of control | T/C [4]: 95 % of control | T/C [5]: 106 % of control

CCCCCCCCCc1ccc(OP(Oc2ccccc2)Oc2ccc(CCCCCCCCC)cc2)cc1
T/C [6]: 100 % of control | T/C [7]: 109 % of control

O=c1c(Cl)c(C(Cl)(Cl)Cl)[nH]c2ccccc12
T/C (dose: 25.0 mg/kg/injection, schedule: Q01DX001 (ip), vehicle: saline with Tween-80): 104 % of control | T/C (dose: 50.0 mg/kg/injection, schedule: Q01DX001 (ip), vehicle: saline with Tween-80): 106 % of control

COC(=O)C(Br)C(Br)N1C(=O)c2ccccc2C1=O (stereo not given)
T/C [1]: 98 % of control | T/C [4]: 102 % of control | T/C [2]: 96 % of control | T/C [5]: 105 % of control | T/C [3]: 102 % of control | T/C [8]: 97 % of control

COc1ccc(OP(=O)(N2CC2)N2CC2)cc1
T/C (dose: 75.0 mg/kg/injection, schedule: Q01DX Z (ip), vehicle: carboxymethylcellulose (CMC)): 120 % of control | T/C (dose: 300.0 mg/kg/injection, schedule: Q01DX Z (ip), vehicle: carboxymethylcellulose (CMC)): 160 % of control

CCOC(=O)c1cnc2ccccc2c1Cl
T/C [9]: 103 % of control and 87 % of control | T/C [10]: 105 % of control | T/C [11]: 103 % of control

CC(C)OC(=O)C1OC1c1ccccc1 (stereo not given)
T/C [12]: 109 % of control | T/C [13]: 102 % of control | T/C [14]: 109 % of control

CCSc1nc(C=O)c(Cc2ccccc2)c(=O)[nH]1
T/C [4]: 101 % of control | T/C [5]: 103 % of control | T/C [8]: 98 % of control

CCCCCCCCN(N)C12CC3CC(CC(C3)C1)C2
T/C (dose: 6.25 mg/kg/injection, schedule: Q01DX009 (ip), vehicle: saline): 106 % of control | T/C (dose: 12.5 mg/kg/injection, schedule: Q01DX009 (ip), vehicle: saline): 107 % of control | T/C [15]: 113 % of control | T/C (dose: 25.0 mg/kg/injection, schedule: Q01DX009 (ip), vehicle: saline): 106 % of control | T/C [16]: 113 % of control | T/C [17]: 87 % of control | T/C [18]: 113 % of control

CSc1nc(N)nc2c1nc(SC)n2C1OC(CO)C(O)C1O (stereo not given)
T/C (dose: 100.0 mg/kg/injection, schedule: Q01DX005 (ip), vehicle: saline): 102 % of control | T/C (dose: 200.0 mg/kg/injection, schedule: Q01DX005 (ip), vehicle: saline): 94 % of control

Cc1c(Cl)cccc1NC(=O)Nc1cccc(O)c1
T/C (dose: 100.0 mg/kg/injection, schedule: Q01DX009 (ip), vehicle: saline with Tween-80): 104 % of control and 89 % of control | T/C [12]: 97 % of control and 100 % of control | T/C [19]: 101 % of control | T/C (dose: 200.0 mg/kg/injection, schedule: Q01DX009 (ip), vehicle: saline with Tween-80): 95 % of control and 97 % of control | T/C [13]: 93 % of control and 89 % of control | T/C [20]: 100 % of control | T/C (dose: 400.0 mg/kg/injection, schedule: Q01DX009 (ip), vehicle: saline with Tween-80): 93 % of control and 90 % of control | T/C [14]: 93 % of control and 94 % of control | T/C [21]: 97 % of control

C[n+]1ccc2ccccc2c1
T/C [17]: 105 % of control | T/C [18]: 105 % of control | T/C (dose: 100.0 mg/kg/injection, schedule: Q01DX009 (ip), vehicle: saline): 100 % of control | T/C [22]: 101 % of control | T/C (dose: 200.0 mg/kg/injection, schedule: Q01DX009 (ip), vehicle: saline): 107 % of control | T/C (dose: 200.0 mg/kg/injection, schedule: Q04DX003 (ip), vehicle: saline): 106 % of control

O=C(O)c1cc2ccccc2c2cc(C(F)(F)F)ccc12
T/C [6]: 92 % of control | T/C [7]: 97 % of control

Nc1ncnc(NC2CCCCC2)n1
T/C [23]: 100 % of control | T/C [24]: 94 % of control | T/C [25]: 97 % of control and 98 % of control | T/C [26]: 111 % of control | T/C [4]: 91 % of control | T/C [8]: 98 % of control

COC(=O)CCC#CC#CCCC(=O)OC
T/C [1]: 97 % of control | T/C [4]: 90 % of control | T/C [2]: 102 % of control | T/C [5]: 95 % of control | T/C [3]: 108 % of control | T/C [8]: 90 % of control

COC(=O)C1C2CC3c4[nH]c5cc(OC)ccc5c4CCN3CC2CC(OC(=O)c2cc(OC)c(OC)c(OC)c2)C1OC (stereo not given)
T/C [23]: 94 % of control | T/C [24]: 96 % of control | T/C [25]: 105 % of control | T/C [16]: 106 % of control | T/C [26]: 113 % of control | T/C [18]: 119 % of control | T/C [22]: 111 % of control

CC(C)=CCCBr
T/C (dose: 50.0 mg/kg/injection, schedule: Q01DX009 (sc), vehicle: olive oil, sesame oil, peanut oil): 108 % of control | T/C (dose: 100.0 mg/kg/injection, schedule: Q01DX009 (sc), vehicle: olive oil, sesame oil, peanut oil): 102 % of control | T/C (dose: 200.0 mg/kg/injection, schedule: Q01DX009 (sc), vehicle: olive oil, sesame oil, peanut oil): 108 % of control

CC(=O)N1CCC(CC[P+](c2ccccc2)(c2ccccc2)c2ccccc2)CC1
T/C [15]: 101 % of control | T/C [16]: 96 % of control | T/C [18]: 93 % of control

Cn1[nH]c(=O)[nH]c1=O
T/C (dose: 100.0 mg/kg/injection, schedule: Q04DX002 (ip), vehicle: saline): 103 % of control | T/C [19]: 98 % of control and 87 % of control | T/C (dose: 200.0 mg/kg/injection, schedule: Q04DX002 (ip), vehicle: saline): 100 % of control | T/C [20]: 93 % of control | T/C (dose: 400.0 mg/kg/injection, schedule: Q04DX002 (ip), vehicle: saline): 103 % of control | T/C [21]: 90 % of control

COc1ccc(CC(=O)C2C(=O)N(C)c3ccccc32)cc1OC (stereo not given)
T/C (dose: 50.0 mg/kg/injection, schedule: Q01DX001 (ip), vehicle: saline): 104 % of control | T/C [9]: 102 % of control | T/C [10]: 96 % of control | T/C [11]: 98 % of control

Cc1[nH]c(=O)[nH]c(=O)c1S(=O)(=O)O
T/C [4]: 98 % of control | T/C [5]: 93 % of control | T/C [8]: 98 % of control

Cn1c(=N)ccn(C2OC(CO)C(O)C2O)c1=O (stereo not given) (tested in a mixture with another compound)
T/C [9]: 106 % of control | T/C [10]: 106 % of control | T/C [11]: 107 % of control

O=[N+]([O-])c1ccc2nc(-c3ccc(S(=O)(=O)F)cc3)cc(Cl)c2c1
T/C [19]: 98 % of control | T/C [20]: 106 % of control | T/C [21]: 98 % of control
